The source of these data is ChEMBL document CHEMBL5678818, “Discovery of potent SOS1 inhibitors that block RAS activation via disruption of the RAS-SOS1 interaction” (Proc Natl Acad Sci U S A, 2019).

Test [1] deals with Mitogen-activated protein kinase 14 (Homo sapiens) (UniProt Q16539). As to the kind of experiment: Inhibition of p38-alpha (unknown origin) assessed as residual activity at 1000 nM by KINOMEscan analysis relative to control.
Test [2] relates to Phosphatidylinositol 4,5-bisphosphate 3-kinase catalytic subunit alpha isoform (Homo sapiens), P42336 [Q546K]. As to the kind of experiment: Inhibition of PIK3CA Q546K mutant (unknown origin) assessed as residual activity at 1000 nM by KINOMEscan analysis relative to control.
Sequence of Phosphatidylinositol 4,5-bisphosphate 3-kinase catalytic subunit alpha isoform (Homo sapiens), P42336 [Q546K] (P42336 whole entry Q546K, canonical isoform): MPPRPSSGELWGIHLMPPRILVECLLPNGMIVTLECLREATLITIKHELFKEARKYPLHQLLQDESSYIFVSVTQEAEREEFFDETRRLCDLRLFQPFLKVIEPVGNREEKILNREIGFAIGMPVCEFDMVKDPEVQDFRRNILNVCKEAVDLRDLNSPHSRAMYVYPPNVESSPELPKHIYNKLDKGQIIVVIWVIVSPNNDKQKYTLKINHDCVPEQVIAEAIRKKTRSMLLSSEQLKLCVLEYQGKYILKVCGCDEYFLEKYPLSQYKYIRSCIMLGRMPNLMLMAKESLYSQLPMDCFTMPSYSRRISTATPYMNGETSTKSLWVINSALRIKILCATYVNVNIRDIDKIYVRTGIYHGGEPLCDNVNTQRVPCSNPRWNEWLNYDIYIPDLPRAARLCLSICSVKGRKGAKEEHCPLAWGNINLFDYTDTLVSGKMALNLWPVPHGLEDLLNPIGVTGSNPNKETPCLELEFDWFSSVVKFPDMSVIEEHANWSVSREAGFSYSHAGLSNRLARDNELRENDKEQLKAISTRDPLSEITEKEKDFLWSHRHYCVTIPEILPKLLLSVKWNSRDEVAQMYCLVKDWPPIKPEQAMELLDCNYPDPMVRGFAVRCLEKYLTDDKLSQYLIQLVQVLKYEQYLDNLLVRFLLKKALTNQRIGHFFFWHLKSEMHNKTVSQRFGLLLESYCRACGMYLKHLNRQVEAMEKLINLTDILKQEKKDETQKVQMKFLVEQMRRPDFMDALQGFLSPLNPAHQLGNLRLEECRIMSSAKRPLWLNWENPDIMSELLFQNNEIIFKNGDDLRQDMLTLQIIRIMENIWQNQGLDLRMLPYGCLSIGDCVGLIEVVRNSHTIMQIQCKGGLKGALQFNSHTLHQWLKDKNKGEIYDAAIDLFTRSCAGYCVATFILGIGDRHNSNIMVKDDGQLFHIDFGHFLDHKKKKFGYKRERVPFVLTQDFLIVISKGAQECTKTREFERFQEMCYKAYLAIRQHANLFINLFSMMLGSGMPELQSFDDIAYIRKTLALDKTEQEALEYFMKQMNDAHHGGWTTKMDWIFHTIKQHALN
Test [3] concerns the target T1, Serine/threonine-protein kinase ULK3 (Homo sapiens) (UniProt Q6PHR2).
T1 sequence (whole entry): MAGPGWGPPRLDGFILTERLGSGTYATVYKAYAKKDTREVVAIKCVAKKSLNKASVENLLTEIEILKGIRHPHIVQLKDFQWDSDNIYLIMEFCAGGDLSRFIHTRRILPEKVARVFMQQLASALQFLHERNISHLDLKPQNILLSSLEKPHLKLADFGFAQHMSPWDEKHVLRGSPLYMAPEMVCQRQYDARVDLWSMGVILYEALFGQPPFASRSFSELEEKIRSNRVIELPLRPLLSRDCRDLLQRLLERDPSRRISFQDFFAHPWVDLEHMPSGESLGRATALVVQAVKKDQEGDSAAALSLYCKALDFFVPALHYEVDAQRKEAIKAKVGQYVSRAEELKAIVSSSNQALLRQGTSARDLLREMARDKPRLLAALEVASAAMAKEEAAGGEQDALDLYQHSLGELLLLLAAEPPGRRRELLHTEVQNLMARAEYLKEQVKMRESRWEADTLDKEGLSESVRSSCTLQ
Put plainly: Inhibition of ULK3 (unknown origin) assessed as residual activity at 1000 nM by KINOMEscan analysis relative to control.

For test [4], the target named is Tyrosine-protein kinase Blk (Homo sapiens) (UniProt P51451). As to the kind of experiment: Inhibition of BLK (unknown origin) assessed as residual activity at 1000 nM by KINOMEscan analysis relative to control.
Sequence of Tyrosine-protein kinase Blk (Homo sapiens) (P51451 2-505 limits assumed): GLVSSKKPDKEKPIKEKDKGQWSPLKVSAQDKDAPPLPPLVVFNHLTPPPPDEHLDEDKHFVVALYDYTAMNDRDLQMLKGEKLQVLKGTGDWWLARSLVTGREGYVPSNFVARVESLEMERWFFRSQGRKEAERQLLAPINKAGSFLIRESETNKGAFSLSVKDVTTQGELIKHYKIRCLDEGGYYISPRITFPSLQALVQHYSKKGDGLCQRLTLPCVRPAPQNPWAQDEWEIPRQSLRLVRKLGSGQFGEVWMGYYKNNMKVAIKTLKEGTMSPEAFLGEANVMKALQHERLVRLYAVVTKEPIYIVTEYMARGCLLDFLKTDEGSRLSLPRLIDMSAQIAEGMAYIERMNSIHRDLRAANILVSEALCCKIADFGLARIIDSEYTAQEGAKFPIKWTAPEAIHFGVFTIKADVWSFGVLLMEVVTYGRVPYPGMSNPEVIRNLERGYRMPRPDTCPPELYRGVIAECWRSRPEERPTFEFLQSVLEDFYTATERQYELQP
Test [5] has as its target T2, Receptor-interacting serine/threonine-protein kinase 1 (Homo sapiens) (UniProt Q13546).
T2 sequence (whole entry): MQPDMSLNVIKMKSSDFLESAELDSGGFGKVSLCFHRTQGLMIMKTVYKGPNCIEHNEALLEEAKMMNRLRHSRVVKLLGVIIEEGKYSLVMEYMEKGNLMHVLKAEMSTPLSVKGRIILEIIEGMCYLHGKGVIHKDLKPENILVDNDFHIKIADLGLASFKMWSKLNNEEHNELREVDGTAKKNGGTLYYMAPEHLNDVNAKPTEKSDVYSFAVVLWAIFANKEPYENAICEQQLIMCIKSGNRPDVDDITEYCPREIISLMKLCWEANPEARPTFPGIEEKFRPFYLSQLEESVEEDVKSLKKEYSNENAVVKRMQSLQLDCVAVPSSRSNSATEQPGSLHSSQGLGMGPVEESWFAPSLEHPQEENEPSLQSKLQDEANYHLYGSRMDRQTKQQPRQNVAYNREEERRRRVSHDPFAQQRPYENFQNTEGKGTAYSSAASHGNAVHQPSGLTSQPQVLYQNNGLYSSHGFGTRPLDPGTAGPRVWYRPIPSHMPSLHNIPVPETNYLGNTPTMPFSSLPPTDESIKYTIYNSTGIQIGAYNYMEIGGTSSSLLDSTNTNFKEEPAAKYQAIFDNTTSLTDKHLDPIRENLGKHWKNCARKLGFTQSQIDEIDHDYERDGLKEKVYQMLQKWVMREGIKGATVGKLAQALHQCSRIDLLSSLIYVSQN
Put plainly: Inhibition of RIPK1 (unknown origin) assessed as residual activity at 1000 nM by KINOMEscan analysis relative to control.

In test [6] the target is Mast/stem cell growth factor receptor Kit (Homo sapiens) (UniProt P10721). As to the kind of experiment: Inhibition of KIT (unknown origin) assessed as residual activity at 1000 nM by KINOMEscan analysis relative to control.
Sequence of Mast/stem cell growth factor receptor Kit (Homo sapiens) (P10721 whole entry): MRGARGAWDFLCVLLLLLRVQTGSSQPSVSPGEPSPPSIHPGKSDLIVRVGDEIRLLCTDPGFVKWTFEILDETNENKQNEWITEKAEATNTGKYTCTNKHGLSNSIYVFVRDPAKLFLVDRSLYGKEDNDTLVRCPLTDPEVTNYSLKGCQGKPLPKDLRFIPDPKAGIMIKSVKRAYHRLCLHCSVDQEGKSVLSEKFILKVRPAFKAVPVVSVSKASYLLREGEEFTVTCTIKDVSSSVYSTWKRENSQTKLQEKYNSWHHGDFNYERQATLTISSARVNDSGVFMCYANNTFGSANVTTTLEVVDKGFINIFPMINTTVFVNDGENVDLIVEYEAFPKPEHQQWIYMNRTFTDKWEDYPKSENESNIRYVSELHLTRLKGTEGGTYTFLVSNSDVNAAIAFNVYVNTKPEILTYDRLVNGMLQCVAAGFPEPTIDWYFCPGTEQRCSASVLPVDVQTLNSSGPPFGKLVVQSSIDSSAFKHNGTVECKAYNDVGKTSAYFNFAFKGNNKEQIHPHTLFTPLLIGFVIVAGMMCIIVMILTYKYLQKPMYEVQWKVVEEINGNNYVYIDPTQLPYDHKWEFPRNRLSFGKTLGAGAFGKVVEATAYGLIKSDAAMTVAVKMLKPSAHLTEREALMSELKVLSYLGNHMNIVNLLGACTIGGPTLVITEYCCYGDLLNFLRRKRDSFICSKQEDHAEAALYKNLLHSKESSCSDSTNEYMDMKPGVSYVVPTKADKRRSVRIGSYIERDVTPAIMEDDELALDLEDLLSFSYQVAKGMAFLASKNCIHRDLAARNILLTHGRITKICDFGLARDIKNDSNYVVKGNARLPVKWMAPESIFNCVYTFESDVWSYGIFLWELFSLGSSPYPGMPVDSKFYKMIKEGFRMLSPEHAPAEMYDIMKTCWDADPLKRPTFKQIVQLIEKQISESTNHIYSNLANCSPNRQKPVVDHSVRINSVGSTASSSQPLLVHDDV
Test [7] deals with T3, Serine/threonine-protein kinase Sgk3 (Homo sapiens) (UniProt Q96BR1).
T3 sequence (whole entry): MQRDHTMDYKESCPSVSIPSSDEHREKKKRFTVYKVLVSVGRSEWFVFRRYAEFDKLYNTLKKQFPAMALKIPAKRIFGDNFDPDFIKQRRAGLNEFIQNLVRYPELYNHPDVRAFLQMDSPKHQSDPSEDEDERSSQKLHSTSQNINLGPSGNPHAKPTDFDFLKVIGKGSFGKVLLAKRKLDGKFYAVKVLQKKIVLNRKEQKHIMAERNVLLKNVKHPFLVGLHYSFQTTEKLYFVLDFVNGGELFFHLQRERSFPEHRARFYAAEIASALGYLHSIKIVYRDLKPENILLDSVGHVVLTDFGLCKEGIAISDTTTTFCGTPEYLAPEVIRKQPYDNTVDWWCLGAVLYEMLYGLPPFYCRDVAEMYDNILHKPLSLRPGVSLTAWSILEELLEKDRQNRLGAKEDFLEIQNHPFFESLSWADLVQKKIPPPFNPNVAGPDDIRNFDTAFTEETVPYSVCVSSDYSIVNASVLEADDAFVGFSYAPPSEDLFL
Put plainly: Inhibition of SGK3 (unknown origin) assessed as residual activity at 1000 nM by KINOMEscan analysis relative to control.

In test [8] the target is Tyrosine-protein kinase Fgr (Homo sapiens) (UniProt P09769). Put plainly: Inhibition of FGR (unknown origin) assessed as residual activity at 1000 nM by KINOMEscan analysis relative to control.
Sequence of Tyrosine-protein kinase Fgr (Homo sapiens) (P09769 2-529 limits assumed): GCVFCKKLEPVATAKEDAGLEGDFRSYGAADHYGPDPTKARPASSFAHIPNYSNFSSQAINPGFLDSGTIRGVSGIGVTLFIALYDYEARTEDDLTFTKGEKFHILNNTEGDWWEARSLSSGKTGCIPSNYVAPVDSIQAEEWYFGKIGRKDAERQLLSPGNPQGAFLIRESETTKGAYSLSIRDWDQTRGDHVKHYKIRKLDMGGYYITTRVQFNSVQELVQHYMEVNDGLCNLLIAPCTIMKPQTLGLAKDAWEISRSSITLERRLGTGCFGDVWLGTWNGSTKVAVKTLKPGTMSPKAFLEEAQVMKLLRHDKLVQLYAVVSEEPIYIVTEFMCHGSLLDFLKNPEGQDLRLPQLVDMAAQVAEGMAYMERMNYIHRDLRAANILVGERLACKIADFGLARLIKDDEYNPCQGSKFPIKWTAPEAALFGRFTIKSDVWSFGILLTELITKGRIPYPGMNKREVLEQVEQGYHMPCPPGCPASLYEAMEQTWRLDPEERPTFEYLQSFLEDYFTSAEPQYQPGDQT

Sequence of Mitogen-activated protein kinase 14 (Homo sapiens) (Q16539 whole entry, canonical isoform): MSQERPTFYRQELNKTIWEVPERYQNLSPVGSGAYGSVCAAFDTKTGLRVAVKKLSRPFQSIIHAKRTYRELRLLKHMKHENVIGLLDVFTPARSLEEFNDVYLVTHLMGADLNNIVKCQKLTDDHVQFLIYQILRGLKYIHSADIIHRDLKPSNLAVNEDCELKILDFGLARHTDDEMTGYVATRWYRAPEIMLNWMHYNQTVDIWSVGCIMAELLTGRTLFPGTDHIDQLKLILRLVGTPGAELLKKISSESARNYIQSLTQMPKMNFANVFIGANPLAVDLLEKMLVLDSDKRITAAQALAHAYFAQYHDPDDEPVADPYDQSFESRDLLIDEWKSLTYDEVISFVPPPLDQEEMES

In the case of `COc1cc2nc(C)nc(N[C@H](C)c3cccc(-c4cn[nH]c4)c3)c2cc1OC`, the Activity turned out to be 98% in test [1]; 87% in test [2]; 82% in test [3]; 100% in test [4]; 85% in test [5]; 99% in test [6]. Further, the Activity turned out to be 90% in test [7] and 48% in test [8].
As to `COc1cc2ncnc(N[C@H](C)c3cccc4ccccc34)c2cc1OC`, the Activity in test [1] was found to be 58%; in test [2], 83%; in test [3], 99%; in test [4] it was 53%; in test [5] it was 93%; in test [6], 100%. For the same compound, the Activity in test [7] amounted to 100%; in test [8] it was 95%.
